Measured values from patent publication US20260078103A1, “ISOQUINOLONES AS PI3K INHIBITORS” (OnKure, Inc., priority 2022, published 2026).
Read-outs that look alike come from different tables or passages of the source.

What was measured:
Assay type in all cases: cell-based
[1] = tested on: phosphorylation of AKT (pAKT) in T47D cells expressing mutant PI3Ka (H1047R); assay: In vitro cell pAKT (Ser473) HTRF, T47D cells; details: cellular pAKT, T47D cells, mutant PI3Ka (H1047R), 6 hours, read-out: Avg T-47D IC50
Description: (§1) In Vitro Cell pAKT: Determination of IC50 Values for Inhibition of Phosphorylation of AKT (pAKT) in T47D Cells Expressing Mutant PI3Ka (H1047R) Mutation and SKBR3 Cells Express WT PI3Ka.
(§2) T47D or SKBR3 cells were trypsinized, resuspended in culture media and seeded onto assay ready plates. T47D culture media consisted of RPMI, 10% FBS and Insulin (0.2 units/mL). SKBR3 culture media consisted of McCoy's 5a and 10% FBS. Cells were seeded at a density of 5000 cells/well and dispensed in 12.5 μL onto 384 well assay ready plates (Perkin Elmer, 6008238)). Assay ready plates had previously been stamped with 10-point dilutions of compounds of interest, as well as controls. The Echo655 is used to stamp plates at 12.5 nL of compound or DMSO. Cells were grown for 6 hours at 37° Celsius and 5% CO2. After 6 hours, 4 μL of Lysis buffer reagent was added to the plate, which was then centrifuged for 1 minute at 1000 rpm. Then the plate was incubated at room temperature for 30 minutes. After 30 minutes, 4 μL of antibody mix containing Eu Cryptate, d2 Cryptate, and detection buffer, was added to the plate. The plate was centrifuged for 1 minute at 1000 rpm and then incubated overnight at room temperature. The plate was read on an Envision plate reader using the HTRF protocol. The percentage of inhibition of AKT phosphorylation was calculated using the following formula: % Inhibition=100×(pAKTHC−pAKTSample)/(pAKTHC−pAKTLC)), where pAKTHC is obtained from cells treated with 0.1% DMSO only; PAKTLC is obtained from cells treated with 10 uM Alpelisib. The IC50 (concentration achieving 50% inhibition of pAKT) is calculated by fitting the Curve using XIfit (v5.3.1.3), equation 201: Y=Bottom+(Top−Bottom)/(1+10^((LogIC50−X)*HillSlope)).

[2] = tested on: T47D cells expressing mutant PI3Ka (H1047R); assay: In vitro cell proliferation, T47D cells (CellTiter-Glo); details: inhibition of proliferation, read-out: Avg T-47D EC50
Description: (§3) In Vitro Cell Proliferation: Determination of EC50 Values for Inhibition of Proliferation in T47D Cells Expressing Mutant PI3Ka (H1047R) Mutation and SKBR3 Cells Express WT PI3Ka.
(§4) T47D or SKBR3 cells were trypsinized, resuspended in culture media and seeded onto assay ready plates. T47D culture media consisted of RPMI, 10% FBS and Insulin (0.2 units/mL). SKBR3 culture media consisted of McCoys 5a and 10% FBS. Cells were seeded at a density of 1,500 cells/well and dispensed in 50 μl onto 384 well assay ready plates (Corning, 89089-790). Assay ready plates had previously been stamped with 10-point dilutions of compounds of interest, as well as controls. The Echo655 is used to stamp plates at 40 nL of compound or DMSO. Cells were grown for 72 hours at 37° Celsius and 5% CO2. After 72 hours, cells were equilibrated at room temperature for 15 minutes. 30 μL of CellTiter-Glo reagent is added to the plate, which is then shaken for 30 minutes at temperature at 300-500 rpm. Cells are then read on an Envision plate reader. The percentage of inhibition of proliferation was calculated using the following formula: % Inhibition=100×(LumD−Lumsample)/(LumD−Lumlnh), where D is obtained from cells treated with 0.1% DMSO only; lnh is obtained from cells treated with 10 uM Alpelisib. The effective concentration achieving 50% inhibition of proliferation (EC50) is calculated by fitting the Curve using Xlfit (v5.3.1.3), equation 201: Y=Bottom+(Top−Bottom)/(1+10^((LogEC50−X)*HillSlope)).

[3] = tested on: SKBR3 cells express WT PI3Ka; assay: In vitro cell proliferation, SKBR3 cells (CellTiter-Glo); details: inhibition of proliferation
Description: as §3, §4

[4] = tested on: phosphorylation of AKT (pAKT) in SKBR3 cells express WT PI3Ka; assay: In vitro cell pAKT (Ser473) HTRF, SKBR3 cells; details: cellular pAKT
Description: as §1, §2

Compound	IC50 ([1]; Homo sapiens, T47D, 6 h) [µM]	EC50 ([2]; Homo sapiens, T47D, 72 h) [µM]	EC50 ([3]; Homo sapiens, SK-BR-3, 72 h) [µM]	IC50 ([4]; Homo sapiens, SK-BR-3, 6 h) [µM]	IC50 [1] [µM]	EC50 ([2]; 72 hours) [µM]	EC50 ([3]; 72 hours) [µM]	IC50 ([4]; 6 hours) [µM]
C[C@@H](Nc1ccccc1C(=O)O)c1cc(F)cc2c(=O)n(C)c(C34CC(CC(F)(F)F)(C3)C4)cc12 [Example 570]	0.001 to 0.5	0.001 to 0.5	> 15	> 15	–	–	–	–
CC(Nc1cccc(F)c1C(=O)O)c1cc(F)cc2c(=O)n(C)c(-c3ccc(OCC(F)F)nc3)cc12 (stereo not drawn) [Example 457]	–	–	–	–	0.001 to 0.5	0.001 to 0.5	> 15	> 15
Cc1cc(C(C)Nc2ccccc2C(=O)O)c2cc(N3CC4C(C3)C4C(F)(F)F)n(C)c(=O)c2c1 (stereo not drawn) [Example 191]	–	–	–	–	0.001 to 0.5	0.5 to 2	> 15	> 15
Cc1cc(C(C)Nc2ccccc2C(=O)O)c2cc(N3CCn4c(C)nnc4C3)n(C)c(=O)c2c1 (stereo not drawn) [Example 58]	> 15	> 15	> 15	> 15	–	–	–	–
Cc1cc([C@@H](C)Nc2ccccc2C(=O)O)c2cc(-c3ccc(C(C)(F)F)nc3)n(C)c(=O)c2c1 [Example 230]	0.001 to 0.5	0.001 to 0.5	> 15	> 15	–	–	–	–
C[C@@H](Nc1ccccc1C(=O)O)c1cc(F)cc2c(=O)n(C)c(-c3ccc(OC4CC(F)(F)C4)nc3)cc12 [Example 546]	–	–	–	–	0.001 to 0.5	0.001 to 0.5	> 15	> 15
Cc1cc([C@@H](C)Nc2cccc(F)c2C(=O)O)c2cc(N3CCn4c(cnc4C)C3)n(C)c(=O)c2c1 [Example 438]	–	–	–	–	> 15	> 15	> 15	> 15
Cc1cc(C(C)Nc2ccccc2C(=O)O)c2cc(N3Cc4cc(F)cc(F)c4C3)n(C)c(=O)c2c1 (single isomer, unassigned) [Example 102]	–	–	> 15	> 15	> 15	2 to 15	–	–
Cc1cc([C@@H](C)Nc2ccccc2C(=O)O)c2cc(N3CCN(c4cnc(C)nc4)CC3)n(C)c(=O)c2c1 [Example 237]	0.001 to 0.5	0.001 to 0.5	2 to 15	2 to 15	–	–	–	–
CCOc1ccc(-c2cc3c(C(C)Nc4ccccc4C(=O)O)cc(C)cc3c(=O)n2C)cn1 (single isomer, unassigned) [Example 133]	–	–	–	–	> 15	2 to 15	> 15	> 15
Cc1cc([C@@H](C)Nc2ccccc2C(=O)O)c2cc(N3CC(C)(c4ccccc4)C3)n(C)c(=O)c2c1 [Example 179]	0.001 to 0.5	0.001 to 0.5	> 15	> 15	–	–	–	–
Cc1cc([C@@H](C)Nc2cccc(C)c2C(=O)O)c2cc(N3CCN(CC(F)(F)F)CC3)n(C)c(=O)c2c1 [Example 297]	2 to 15	2 to 15	> 15	> 15	–	–	–	–
Cc1cc([C@@H](C)Nc2ccccc2C(=O)O)c2cc(N3CCN(c4nccnc4C)CC3)n(C)c(=O)c2c1 [Example 255]	0.001 to 0.5	0.001 to 0.5	2 to 15	2 to 15	–	–	–	–
C[C@@H](Nc1ccccc1C(=O)O)c1cc(F)cc2c(=O)n(C)c(-c3cnc(-c4ccc(F)cc4)nc3)cc12 [Example 324]	–	–	–	–	0.001 to 0.5	0.001 to 0.5	2 to 15	> 15
CC(Nc1ccccc1C(=O)O)c1cc(F)cc2c(=O)n(C)c(-c3cnc(OC4CC4)c(F)c3)c(F)c12 (stereo not drawn) [Example 565]	–	–	–	–	0.001 to 0.5	0.001 to 0.5	> 15	> 15
C[C@@H](Nc1ccccc1C(=O)O)c1cc(F)cc2c(=O)n(C)c(N3CCN(c4nccs4)CC3)cc12 [Example 466]	0.001 to 0.5	0.001 to 0.5	> 15	2 to 15	–	–	–	–
Cc1cc(C(C)Nc2ccccc2C(=O)O)c2cc(N3Cc4ccc(F)c(F)c4C3)n(C)c(=O)c2c1 (single isomer, unassigned) [Example 177]	–	–	> 15	> 15	> 15	2 to 15	–	–
Cc1ccc(-c2ncc(-c3cc4c(C(C)Nc5ccccc5C(=O)O)cc(F)cc4c(=O)n3C)cc2F)cn1 (stereo not drawn) [Example 473]	–	–	–	–	0.001 to 0.5	0.001 to 0.5	> 15	2 to 15
Cc1cc(C(C)Nc2ccc(Cl)nc2C(=O)O)c2cc(N3CCC(C)(C)CC3)n(C)c(=O)c2c1 (single isomer, unassigned) [Example 3, 6-chloro-3-((1-(3-(4,4-dimethylpiperidin-1-yl)-2,7-dimethyl-1-oxo-1,2-dihydroisoquinolin-5-yl)ethyl)amino)picolinic acid]	–	–	2 to 15	–	0.5 to 2	0.001 to 0.5	–	2 to 15
Cc1cc(C(C)Nc2ccccc2C(=O)O)c2cc(N3C[C@@H]4CCCC[C@H]4C3)n(C)c(=O)c2c1 (single isomer, unassigned) [Example 114]	–	–	–	–	> 15	> 15	> 15	> 15
CC(Nc1ccccc1C(=O)O)c1cc(F)cc2c(=O)n(C)c(-c3ccc(OC4CC(F)C4)nc3)cc12 (stereo not drawn) [Example 448]	–	–	–	–	0.001 to 0.5	0.001 to 0.5	> 15	> 15
COc1ncc(-c2cc3c([C@@H](C)Nc4ccccc4C(=O)O)cc(C)cc3c(=O)n2C)cn1 [Example 234]	0.001 to 0.5	0.001 to 0.5	> 15	> 15	–	–	–	–
C[C@@H](Nc1cccc(F)c1C(=O)O)c1cc(F)cc2c(=O)n(C)c(-c3cnc(OC4CC4)c(F)c3)cc12 [Example 390]	–	–	–	–	0.001 to 0.5	0.001 to 0.5	> 15	> 15
Cc1cc([C@@H](C)Nc2ccccc2C(=O)O)c2cc(C3CCN(CC(F)(F)F)CC3)n(C)c(=O)c2c1 [Example 296]	0.001 to 0.5	0.001 to 0.5	> 15	> 15	–	–	–	–
Cc1cc(C(C)Nc2ccccc2C(=O)O)c2cc(N3Cc4c(F)c(F)c(F)c(F)c4C3)n(C)c(=O)c2c1 (stereo not drawn) [Example 89]	0.5 to 2	2 to 15	> 15	> 15	–	–	–	–
CC(=O)N1CCC2(CC1)CCN(c1cc3c(C(C)Nc4ccccc4C(=O)O)cc(C)cc3c(=O)n1C)CC2 (single isomer, unassigned) [Example 136]	–	–	–	–	0.001 to 0.5	0.001 to 0.5	2 to 15	2 to 15
Cc1cc([C@@H](C)Nc2ccccc2C(=O)O)c2cc(-c3ccc(C4CC4)nc3)n(C)c(=O)c2c1 [Example 227]	0.001 to 0.5	0.001 to 0.5	> 15	> 15	–	–	–	–
Cc1cc([C@@H](C)Nc2cccc(F)c2C(=O)O)c2cc(-c3ccc(OC4CC4)nc3)n(C)c(=O)c2c1 [Example 351]	0.001 to 0.5	0.001 to 0.5	> 15	> 15	–	–	–	–
Cc1cc(C(C)Nc2ccc(Cl)nc2C(=O)O)c2cc(N3Cc4ccc(F)cc4C3)n(C)c(=O)c2c1 (single isomer, unassigned) [Example 127]	–	–	–	–	> 15	2 to 15	> 15	> 15
C[C@@H](Nc1ccccc1C(=O)O)c1cc(F)cc2c(=O)n(C)c(C34CC(C(F)(F)F)(C3)C4)cc12 [Example 521]	–	–	–	–	0.001 to 0.5	0.001 to 0.5	2 to 15	> 15
